Data published in patent US11965159B2, “Compositions and methods for regulating proteins and nucleic acids activities” (THE BROAD INSTITUTE, INC., priority 2019, dated 2024).

How the values were obtained:
dCas9 = experiment: dCas9-based transcriptional activation of HBG1 gene in HEK293FT cells (RT-qPCR); format: cell-based; conditions: for inhibition of the HBG1 transcriptional activation: 48 hours
Procedure: Transcription activation experiments and quantitative RT-PCR analyses. For transcription activation experiments 250,000 cells/well were plated in a 12 well plate. The cells were transiently transfected with a 1:1:1 mass ratio of the dCas9 plasmid, MS2-P65-HSF1 effector plasmid and the sgRNA plasmid targeting the HBG1 gene or an RFP control plasmid. A total of 1.6 μg plasmid DNA was transfected using Lipofectamine™ 2000 (Life Technologies™) according to manufacturer's protocol. Immediately after transfection, the cells were treated with an appropriate dose of the small molecule inhibitors for 48 hours following which the cells were harvested and RNA was extracted using the EZNA® Total RNA kit I (OMEGA) as per manufacturer's instructions. 1 μg total cellular RNA was used to perform reverse transcription using the High-Capacity cDNA Reverse Transcription Kit (Applied Biosystems™) or the qScript® cDNA Synthesis Kit (QUANTABIO). qPCR reactions were performed to quantify RNA expression using the TaqMan™ probes (Life Technologies™ HBG1/HBG2: Hs00361131_g1 and ACTB: Hs01060665_g1) and TaqMan™ Fast Advanced Master Mix (Life Technologies™) in 5 μL multiplexed reactions and 384-well format using the LightCycler® 480 Instrument II (ROCHE). For each sample, six technical replicates were performed. Data were analyzed using the LightCycler® 480 software (ROCHE) by the ΔΔCt method: Ct values for the gene of interest (HBG1) were normalized to Ct values for the housekeeping gene (ACTB) and fold-changes in the expression level of the gene of interest were normalized to RFP-transfected control. The data are reported as mean S.E.M. for technical replicates.
For transcription activation experiments 250,000 cells/well were plated in a 12 well plate. […] Data were analyzed using the LightCycler® 480 software (ROCHE) by the ΔΔCt method: Ct values for the gene of interest (HBG1) were normalized to Ct values for the housekeeping gene (ACTB) and fold-changes in the expression level of the gene of interest were normalized to RFP-transfected control. […]

SpCas9 = SpCas9 (Streptococcus pyogenes serotype M1, UniProt Q99ZW2); experiment: mKate2 expression (knockdown/disruption) assay; format: cell-based; conditions: read-out: inhibition activity in mKate2 disruption assay
Chain of SpCas9 (Q99ZW2 whole entry): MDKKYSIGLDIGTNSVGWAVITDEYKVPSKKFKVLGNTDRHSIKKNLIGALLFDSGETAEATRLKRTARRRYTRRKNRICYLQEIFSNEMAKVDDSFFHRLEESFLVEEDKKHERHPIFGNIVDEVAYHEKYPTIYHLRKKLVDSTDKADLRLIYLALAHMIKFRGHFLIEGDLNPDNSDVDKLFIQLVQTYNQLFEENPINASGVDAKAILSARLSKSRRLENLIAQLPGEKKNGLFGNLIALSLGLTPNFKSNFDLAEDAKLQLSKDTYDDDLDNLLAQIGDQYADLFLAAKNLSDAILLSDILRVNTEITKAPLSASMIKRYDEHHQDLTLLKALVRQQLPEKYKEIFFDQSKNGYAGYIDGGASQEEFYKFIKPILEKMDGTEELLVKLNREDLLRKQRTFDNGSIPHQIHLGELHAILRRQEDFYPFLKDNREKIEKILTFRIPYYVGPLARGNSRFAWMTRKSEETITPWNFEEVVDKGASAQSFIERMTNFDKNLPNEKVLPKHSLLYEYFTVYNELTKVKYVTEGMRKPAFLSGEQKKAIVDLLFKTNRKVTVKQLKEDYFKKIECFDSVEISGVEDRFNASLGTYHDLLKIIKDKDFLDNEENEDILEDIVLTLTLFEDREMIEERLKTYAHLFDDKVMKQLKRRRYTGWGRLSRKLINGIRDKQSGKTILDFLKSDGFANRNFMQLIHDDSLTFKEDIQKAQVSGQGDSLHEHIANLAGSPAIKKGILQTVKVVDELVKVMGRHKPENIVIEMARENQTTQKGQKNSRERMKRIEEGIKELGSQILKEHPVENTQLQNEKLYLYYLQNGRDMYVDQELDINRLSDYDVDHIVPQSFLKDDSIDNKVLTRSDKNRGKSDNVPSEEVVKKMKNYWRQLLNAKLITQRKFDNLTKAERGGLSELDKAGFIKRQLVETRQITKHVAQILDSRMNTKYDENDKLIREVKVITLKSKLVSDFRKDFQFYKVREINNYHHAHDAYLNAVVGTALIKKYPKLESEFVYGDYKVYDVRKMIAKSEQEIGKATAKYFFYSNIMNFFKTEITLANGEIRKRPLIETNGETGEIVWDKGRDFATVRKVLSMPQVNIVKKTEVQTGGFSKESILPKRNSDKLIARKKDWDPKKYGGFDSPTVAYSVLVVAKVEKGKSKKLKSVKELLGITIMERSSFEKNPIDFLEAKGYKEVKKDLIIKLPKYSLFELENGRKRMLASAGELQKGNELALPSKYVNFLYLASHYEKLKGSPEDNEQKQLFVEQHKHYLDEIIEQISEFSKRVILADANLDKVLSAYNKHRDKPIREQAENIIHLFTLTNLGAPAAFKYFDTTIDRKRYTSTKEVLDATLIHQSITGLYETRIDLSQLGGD
Procedure: Where σ1 and σ2 are the standard deviations of DN66 transfected wells and (DN66+DN78) transfected wells respectively. μ1 and μ2 are the mean % GFP− cell population for DN66 transfected wells and (DN66+DN78) transfected wells respectively. mKate2 expression assay. Approximately 8,000 cells/well were plated in a 96-well format 24 h before transiently transfected with 100 ng of either CgRNA (Addgene Plasmid #64955) or T1 gRNA (Addgene Plasmid #62717) plasmids using Lipofectamine™ 2000 (Life Technologies™). Transfected cells were allowed to grow in the indicated amount of compound or DMSO for 24 h. Cells were then fixed using 4% paraformaldehyde and imaged with the HCS NuclearMask™ Blue Stain (Life Technologies™) as the nuclear counter-staining agent. […] Images were analyzed in the MetaXpress® software to determine the % mKate2 positive cells and the % NHEJ was calculated following a reported protocol and plotted using GraphPad Prism 6. The Z′-value was calculated following the formula:
mKate2 expression assay. […] Images were analyzed in the MetaXpress® software to determine the % mKate2 positive cells and the % NHEJ was calculated following a reported protocol and plotted using GraphPad Prism 6. The Z′-value was calculated following the formula: […]

| Structure (SMILES) | inhibition of the HBG1 transcriptional activation (dCas9) | inhibition of transcriptional activation (dCas9; 10 μM) | inhibition at 5 µM (SpCas9) |
| --- | --- | --- | --- |
| COc1ccc(-c2ccc3c(c2)[C@H]2[C@H](CCN2Cc2ccncc2)[C@@H](CO)N3)cc1 [BRD5779, ((3aR,4S,9bR)-8-(4-Methoxyphenyl)-1-(pyridin-4-ylmethyl)-2,3,3a,4,5,9b-hexahydro-1H-pyrrolo[3,2-c]quinolin-4-yl)methanol] | dose-dependent inhibition | – | – |
| OC[C@H]1Nc2ccc(-c3cccc(F)c3)cc2[C@H]2[C@@H]1CCN2Cc1ccncc1 [BRD7087, ((3aR,4S,9bR)-8-(3-Fluorophenyl)-1-(pyridin-4-ylmethyl)-2,3,3a,4,5,9b-hexahydro-1H-pyrrolo[3,2-c]quinolin-4-yl)methanol] | dose-dependent inhibition | > 60% | 50% |
